Consider 15 molecules from US8173689B2 (Novartis AG, priority 2006, dated 2012).

In general, inhibition refers to the percentage by which the read-out fell short of the control.

Read-outs that look alike come from different tables or passages of the source.

In test [1] the test system is MNFS60 (murine AML cells). Briefly: Cell viability assay in MCSF dependent MNFS60 cells (Cell Titer Glo). The format is cell-based. As to conditions: Mus musculus, tested at about 1 μM, read-out: M-NFS-60 CP percent inhibition. A digest of the protocol: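 3-fold DMSO dilution series (500× stocks); MCSF 10 ng/ml final; 72 hrs, 37° C., 5% CO2; CellTiter-Glo read-out; n=3; EC50 fitted.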
On the technique in general: In ATP-based viability assays light output follows the ATP content of the culture.

A further test addresses T1, kinase domain of PDGFRβ (Homo sapiens, UniProt P09619).
T1 construct: The kinase domain of PDGFRβ was assayed in 50 mM Hepes; purchased Invitrogen P3082
In words: Inhibition of PDGFRb kinase signaling in an in vitro biochemical assay (alphascreen). As to conditions: tested at about 1 μM, read-out: PDGFRβ percent inhibition. For orientation: Alpha assays give light when donor and acceptor beads are brought close together.

Test [2] has as its target T2, cytoplasmic domain of the human CSF-1R (Homo sapiens, UniProt P07333).
T2 construct: Recombinant protein corresponding to the cytoplasmic domain of the human CSF-1R; purchased Invitrogen Corporation, Carlsbad, Calif; PV3249
T2 sequence (P07333 539-972 limits assumed): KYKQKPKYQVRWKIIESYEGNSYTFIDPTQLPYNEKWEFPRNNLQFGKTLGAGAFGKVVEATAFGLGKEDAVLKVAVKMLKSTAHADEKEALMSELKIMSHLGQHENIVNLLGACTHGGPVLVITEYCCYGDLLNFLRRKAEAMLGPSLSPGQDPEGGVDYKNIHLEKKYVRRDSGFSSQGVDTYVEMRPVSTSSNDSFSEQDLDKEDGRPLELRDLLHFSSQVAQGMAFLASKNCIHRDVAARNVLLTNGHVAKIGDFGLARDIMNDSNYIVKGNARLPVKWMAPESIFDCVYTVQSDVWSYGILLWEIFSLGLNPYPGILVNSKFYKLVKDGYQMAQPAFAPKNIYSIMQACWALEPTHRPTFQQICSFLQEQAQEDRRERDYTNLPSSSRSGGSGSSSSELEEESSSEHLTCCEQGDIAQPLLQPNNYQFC
Briefly: In vitro kinase assay for colony stimulating factor-1 receptor (AlphaScreen). The test is classed as biochemical. The following applies: tested at about 1 μM, read-out: CSF-1R percent inhibition. A digest of the protocol:
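At a low ATP level of 1 μM, phosphate transfer by the cytoplasmic-domain kinase (4 nM) was quantified with an AlphaScreen anti-phosphotyrosine bead pair.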

The target in the next test is T3, kinase domain of cKIT (Homo sapiens, UniProt P10721).
T3 construct: The kinase domain of cKIT was assayed in 50 mM Hepes; purchased Upstate 14-559
T3 sequence (P10721 589-937 limits assumed): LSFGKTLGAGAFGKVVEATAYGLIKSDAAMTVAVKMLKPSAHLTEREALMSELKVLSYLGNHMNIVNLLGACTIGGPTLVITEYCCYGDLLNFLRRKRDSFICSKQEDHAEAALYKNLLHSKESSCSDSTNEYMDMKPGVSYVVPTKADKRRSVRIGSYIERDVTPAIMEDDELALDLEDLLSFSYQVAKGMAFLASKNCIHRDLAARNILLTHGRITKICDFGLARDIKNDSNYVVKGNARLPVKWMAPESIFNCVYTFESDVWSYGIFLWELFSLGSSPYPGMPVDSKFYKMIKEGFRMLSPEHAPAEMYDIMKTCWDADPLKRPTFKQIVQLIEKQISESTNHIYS
Briefly: Inhibition of cKIT kinase signaling in an in vitro biochemical assay (alphascreen). As to conditions: tested at about 1 μM, read-out: cKit percent inhibition.

Test [3] concerns the target T4, full-length human CSF-1R receptor (Homo sapiens, UniProt P07333).
T4 construct: transfected with the full-length human CSF-1R receptor cloned in house; expressed in transfected cells; host or cells: HEK293H (Invitrogen Cat. #11631017)
In words: In vitro inhibition of CSF-1R receptor tyrosine phosphorylation in transfected HEK293H cells stimulated with MCSF. As to conditions: HEK293-H, tested at about 1 μM, read-out: pCSF1R percent inhibition. The test is classed as cell-based. How it is done:
The lysate was then transferred to total CSF-1R antibody coated 96-well plates that had already been blocked with 3% Blocker A from Mesoscale discovery (MSD) for 2 hours and washed afterwards. Lysates were incubated overnight at 4° C. and the plates were then washed 4× with MSD Tris Wash Buffer. […] The plates were read on the Sector 6000 instrument (MSD). Raw data was imported in Abase and EC50s calculated with XL-fit data analysis software.

T4 sequence (P07333 20-972): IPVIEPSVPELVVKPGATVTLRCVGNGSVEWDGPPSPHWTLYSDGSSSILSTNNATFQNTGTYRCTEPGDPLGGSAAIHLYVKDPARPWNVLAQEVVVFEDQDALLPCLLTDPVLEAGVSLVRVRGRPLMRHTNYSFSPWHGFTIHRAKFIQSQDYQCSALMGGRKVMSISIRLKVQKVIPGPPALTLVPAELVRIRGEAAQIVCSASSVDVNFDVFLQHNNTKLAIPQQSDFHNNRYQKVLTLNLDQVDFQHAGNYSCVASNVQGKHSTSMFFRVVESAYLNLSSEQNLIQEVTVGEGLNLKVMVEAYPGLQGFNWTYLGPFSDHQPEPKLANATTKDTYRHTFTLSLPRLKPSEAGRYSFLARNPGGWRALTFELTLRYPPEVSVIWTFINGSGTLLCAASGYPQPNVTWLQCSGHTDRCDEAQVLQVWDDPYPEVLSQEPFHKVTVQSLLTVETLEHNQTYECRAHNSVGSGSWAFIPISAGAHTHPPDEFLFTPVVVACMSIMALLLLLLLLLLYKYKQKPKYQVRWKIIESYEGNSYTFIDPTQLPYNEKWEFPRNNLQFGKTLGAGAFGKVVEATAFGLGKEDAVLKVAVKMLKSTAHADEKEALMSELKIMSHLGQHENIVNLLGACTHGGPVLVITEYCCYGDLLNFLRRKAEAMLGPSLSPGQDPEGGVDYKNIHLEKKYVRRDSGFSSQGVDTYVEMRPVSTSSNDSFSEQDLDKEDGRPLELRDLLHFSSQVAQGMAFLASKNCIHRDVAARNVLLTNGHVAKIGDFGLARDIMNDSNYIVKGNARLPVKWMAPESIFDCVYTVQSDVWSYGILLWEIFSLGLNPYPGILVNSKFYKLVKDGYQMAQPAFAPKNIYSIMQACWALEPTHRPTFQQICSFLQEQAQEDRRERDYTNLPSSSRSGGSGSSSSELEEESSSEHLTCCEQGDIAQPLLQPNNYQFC
T1 sequence (P09619 600-962 limits assumed): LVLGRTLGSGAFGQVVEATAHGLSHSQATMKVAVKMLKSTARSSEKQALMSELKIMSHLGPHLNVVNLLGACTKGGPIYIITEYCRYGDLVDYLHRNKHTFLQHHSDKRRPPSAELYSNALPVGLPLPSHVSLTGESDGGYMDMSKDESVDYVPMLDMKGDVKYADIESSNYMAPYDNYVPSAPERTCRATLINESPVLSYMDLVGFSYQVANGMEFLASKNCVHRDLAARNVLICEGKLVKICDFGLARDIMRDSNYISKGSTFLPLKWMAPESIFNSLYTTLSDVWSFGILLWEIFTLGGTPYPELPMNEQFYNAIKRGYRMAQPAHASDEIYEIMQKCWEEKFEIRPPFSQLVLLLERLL

Regarding `CNC(=O)c1cc(Oc2ccc3nc(NCc4ccccc4Cl)sc3c2)ccn1` [Compound 127, 4-[2-(2-Chloro-benzylamino)-benzothiazol-6-yloxy]-pyridine-2-carboxylic acid methylamide], the inhibition at 1 µM in test [1] (MNFS60 cells) stood at 95%; at kinase domain of PDGFRβ, 20%; in test [2], 100%; at kinase domain of cKIT, 81%; in test [3] (HEK293H cells), 95%.
Consider `CNC(=O)c1cc(Oc2ccc3nc(N[C@@H]4c5ccccc5C[C@@H]4O)oc3c2)ccn1` [Compound 50, 4-[2-((1R,2S)-2-Hydroxy-indan-1-ylamino)-benzooxazol-6-yloxy]-pyridine-2-carboxylic acid methylamide], for which the inhibition at 1 µM in test [1] (compounds of Table 3) was determined as 18%; in test [1] (compounds of Table 4) it was 100%; at kinase domain of PDGFRβ (compounds of Table 3) it was 14%; on kinase domain of PDGFRβ (compounds of Table 4), 14%; at kinase domain of PDGFRβ it was 8%; in test [2] (compounds of Table 3), 99%. In addition, the inhibition at 1 µM amounted to 100% in test [2] (compounds of Table 4); 56% in test [2]; 13% at kinase domain of cKIT (compounds of Table 3); 10% at kinase domain of cKIT (compounds of Table 4); 59% at kinase domain of cKIT; 99% in test [3] (compounds of Table 4).
For `CC(C)C[C@H](CO)Nc1nc2ccc(Oc3ccnc(-c4cnn(C)c4)c3)cc2s1` [Example 355, (R)-4-methyl-2-(6-(2-(1-methyl-1H-pyrazol-4-yl)pyridin-4-yloxy)benzo[d]thiazol-2-ylamino)pentan-1-ol], the inhibition at 1 µM in test [1] (MCSF dependent MNFS60 cells) was determined as 100%; at kinase domain of PDGFRβ, 27%; in test [2], 100%; at kinase domain of cKIT, 27%; in test [3] (HEK293H cells), 99%.
On to `CNC(=O)c1cc(Oc2ccc3nc(NC(CO)C4CCOCC4)sc3c2)ccn1` (centres unmarked) [Compound 95], for which the inhibition at 1 µM in test [1] (compounds of Table 3) was 60%; at kinase domain of PDGFRβ (compounds of Table 3) it was 2%; in test [2] (compounds of Table 3) it was 100%; at kinase domain of cKIT (compounds of Table 3), 0%; in test [3] (compounds of Table 3), 65%.
On to `Cn1cc(-c2cc(Oc3ccc4nc(N[C@@H](CO)C5CCCCC5)sc4c3)ccn2)cn1` [Example 347, (R)-2-cyclohexyl-2-(6-(2-(1-methyl-1H-pyrazol-4-yl)pyridin-4-yloxy)benzo[d]thiazol-2-ylamino)ethanol], for which the inhibition at 1 µM stood at 100% in test [1] (MCSF dependent MNFS60 cells); 58% on kinase domain of PDGFRβ; 100% in test [2]; 37% on kinase domain of cKIT; 99% in test [3] (HEK293H cells).
`CCNc1cc(Oc2ccc3nc(NCC4CCCCC4)sc3c2)ccn1` [Example 339, N-(cyclohexylmethyl)-6-(2-(ethylamino)pyridin-4-yloxy)benzo[d]thiazol-2-amine]: the inhibition at 1 µM amounted to 66% in test [1] (MCSF dependent MNFS60 cells); 69% at kinase domain of PDGFRβ; 100% in test [2]; 66% at kinase domain of cKIT; 84% in test [3] (HEK293H cells).
Turning to `CNC(=O)c1cc(Oc2ccc3nc(N[C@H](C)C4CCCCC4)oc3c2)ccn1` [Compound 54, 4-[2-((R)-1-Cyclohexyl-ethylamino)-benzooxazol-6-yloxy]-pyridine-2-carboxylic acid methylamide], the inhibition at 1 µM amounted to 64% in test [1] (MNFS60 cells); 7% on kinase domain of PDGFRβ; 100% in test [2]; 17% on kinase domain of cKIT; 60% in test [3] (HEK293H cells).
Consider `CNC(=O)c1cc(Oc2ccc3nc(N[C@@H]4CCCC[C@H]4N)sc3c2)ccn1` [Example 297, 4-(2-((1R,2R)-2-aminocyclohexylamino)benzo[d]thiazol-6-yloxy)-N-methylpicolinamide], for which the inhibition at 1 µM amounted to 42% in test [1] (compounds of Table 3); 9% on kinase domain of PDGFRβ (compounds of Table 3); 98% in test [2] (compounds of Table 3); 0% on kinase domain of cKIT (compounds of Table 3); 90% in test [3] (compounds of Table 3).
As for `CNC(=O)c1cc(Oc2ccc3nc(N[C@H]4CCCN(C(=O)C5CCCC5)C4)sc3c2)ccn1` [Example 335, (S)-4-(2-(1-(cyclopentanecarbonyl)piper-idin-3-ylamino)benzo[d]thiazol-6-yloxy)-N-methylpicolinamide], the inhibition at 1 µM in test [1] (MCSF dependent MNFS60 cells) came out at 57%; at kinase domain of PDGFRβ, 0%; in test [2] it was 100%; on kinase domain of cKIT, 21%; in test [3] (HEK293H cells) it was 50%.
`CNC(=O)c1cc(Oc2ccc3nc(NCc4cc(F)ccc4F)oc3c2)ccn1` [Compound 33, 4-[2-(2,5-Difluoro-benzylamino)-benzooxazol-6-yloxy]-pyridine-2-carboxylic acid methylamide]: the inhibition at 1 µM in test [1] (MNFS60 cells) was found to be 35%; in test [1] (compounds of Table 4) it was 100%; on kinase domain of PDGFRβ (compounds of Table 4) it was 0%; on kinase domain of PDGFRβ it was 35%; in test [2] (compounds of Table 4) it was 100%; in test [2] it was 98%. Further, the inhibition at 1 µM is 65% at kinase domain of cKIT (compounds of Table 4), 83% in test [3] (HEK293H cells) and 98% in test [3] (compounds of Table 4).
`CCc1nc(-c2cc(Oc3ccc4nc(N[C@@H](C)C5CCCCC5)sc4c3)ccn2)[nH]c1C` [Example 270, (S)-N-(1-cyclohexylethyl)-6-(2-(4-ethyl-5-methyl-1H-imidazol-2-yl)pyridin-4-yloxy)benzo[d]thiazol-2-amine]: the inhibition at 1 µM came out at 50% in test [1] (compounds of Table 3); 11% at kinase domain of PDGFRβ (compounds of Table 3); 98% in test [2] (compounds of Table 3); 21% on kinase domain of cKIT (compounds of Table 3); 74% in test [3] (compounds of Table 3).
Turning to `CNC(=O)c1cc(Oc2ccc3nc(N[C@@H]4C[C@H]5CC[C@@H]4C5)sc3c2)ccn1` [Compound 128], the inhibition at 1 µM in test [1] (compounds of Table 3) stood at 82%; at kinase domain of PDGFRβ (compounds of Table 3), 20%; in test [2] (compounds of Table 3), 100%; at kinase domain of cKIT (compounds of Table 3), 29%; in test [3] (compounds of Table 3) it was 88%.
In the case of `COCCn1cc(-c2cc(Oc3ccc4nc(N[C@@H]5c6ccccc6C[C@@H]5O)sc4c3)ccn2)cn1` [Compound 58], the inhibition at 1 µM in test [1] (compounds of Table 4) is 100%; at kinase domain of PDGFRβ (compounds of Table 4) it was 0%; in test [2] (compounds of Table 4) it was 100%; at kinase domain of cKIT (compounds of Table 4), 11%; in test [3] (compounds of Table 4) it was 95%.
In the case of `CNC(=O)c1cc(Oc2ccc3nc(NC4CCCC(C)C4)sc3c2)ccn1` (centres unmarked) [Compound 136, 4-[2-(3-Methyl-cyclohexyl-amino)-benzothiazol-6-yloxy]-pyridine-2-carboxylic acid methylamide], the inhibition at 1 µM was 100% in test [1] (MNFS60 cells); 84% on kinase domain of PDGFRβ; 100% in test [2]; 88% on kinase domain of cKIT; 97% in test [3] (HEK293H cells).
Regarding `C[C@H](Nc1nc2ccc(Oc3ccnc(-c4cnc5[nH]ccc5c4)c3)cc2s1)C1CCCCC1` [Example 278, (S)-6-(2-(1H-pyrrolo[2,3-b]pyridin-5-yl)pyridin-4-yloxy)-N-(1-cyclohexylethyl)benzo[d] thiazol-2-amine], the inhibition at 1 µM in test [1] (compounds of Table 3) worked out at 82%; at kinase domain of PDGFRβ (compounds of Table 3) it was 12%; in test [2] (compounds of Table 3), 100%; on kinase domain of cKIT (compounds of Table 3), 38%; in test [3] (compounds of Table 3) it was 75%.
